# US20240368127A1, “HSD17B13 INHIBITORS AND USES THEREOF” (FL2022-001, Inc., priority 2021, published 2024)
# Biological target: T1, Recombinant human HSD17B13 enzyme (Homo sapiens, UniProt Q7Z5P4)
# T1 sequence (Q7Z5P4 20-300): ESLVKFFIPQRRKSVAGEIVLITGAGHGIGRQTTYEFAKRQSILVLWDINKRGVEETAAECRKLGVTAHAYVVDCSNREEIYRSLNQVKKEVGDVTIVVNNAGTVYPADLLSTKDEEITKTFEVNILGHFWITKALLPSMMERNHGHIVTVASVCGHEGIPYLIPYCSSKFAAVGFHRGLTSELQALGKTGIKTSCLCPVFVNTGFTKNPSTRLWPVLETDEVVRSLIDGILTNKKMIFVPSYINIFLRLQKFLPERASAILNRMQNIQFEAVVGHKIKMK
# Test: HSD17b13 NAD(P)H-Glo biochemical assay
# Details: 50 μM estradiol, 1 mM NAD+, 37° C. for 3 hours; read-out: HSD17β13 IC50
# Experimental: Example B-1: HSD17b13 NAD (P) H-Glo Biochemical Assay
# Recombinant human HSD17B13 enzyme. Substrate: estradiol (Sigma β-Estradiol E8875), 100 mM in DMSO. Cofactor: NAD+ Grade I free acid (Sigma 10127965001), 20 mM in H2O. Assay buffer final concentration: 20 mM Tris pH7.4 with 0.002% Tween-20 and 0.02% BSA. Assay performed in 384 well solid bottom plate (Corning 3570). Enzymatic activity detected by NAD (P) H-Glo™ Detection System (Promega G9062).
# Inhibitor compounds were serially diluted in DMSO and then further diluted in assay buffer to a 10× concentration consisting of 1% DMSO.
# HSD17b13 enzyme was diluted in 1× assay buffer to the desired enzyme concentration based on the specific activity of the enzyme lot. 20 μL of diluted enzyme was added to each well along with 2.5 μL of 10× inhibitor solution. Assay plate was incubated at RT for 20 minutes, and then 2.5 μL of a 10× substrate/cofactor mix was added to each well for a final concentration of 50 μM estradiol and 1 mM NAD+. Assay plate was incubated at 37° C. for 3 hours. NAD (P) H-Glo™ Detection System reagents were prepared according to manufacturer's specifications, and 25 μL was added to each well. After incubating for 1 hour at RT, luminescence was measured.
row,IC50 [nM],Structure (SMILES)
1,100 to 1000,"Cc1nn(-c2cc(O)cc(C(F)(F)F)c2)c2ccc(N3CCN(S(C)(=O)=O)C[C@H]3Cc3ccccc3)cc12 [Compound 2.26, (R)-3-(5-(2-Benzyl-4-(methylsulfonyl)piperazin-1-yl)-3-methyl-1H-indazol-1-yl)-5-(trifluoromethyl)phenol]"
2,≤ 100,"Cc1nn(-c2cc(C(F)(F)F)c(Cl)c(O)c2F)c2ccc(N3CCN(S(C)(=O)=O)C[C@H]3Cc3ccccc3)cc12 [Compound 2.27, (R)-3-(5-(2-Benzyl-4-(methylsulfonyl)piperazin-1-yl)-3-methyl-1H-indazol-1-yl)-6-chloro-2-fluoro-5-(trifluoromethyl)phenol]"
3,≤ 100,"Cc1nn(-c2cc(C(F)(F)F)cc(O)c2F)c2ccc(N3CCN(S(C)(=O)=O)C[C@H]3Cc3ccccc3)cc12 [Compound 2.28, (R)-3-(5-(2-Benzyl-4-(methylsulfonyl)piperazin-1-yl)-3-methyl-1H-indazol-1-yl)-2-fluoro-5-(trifluoromethyl)phenol]"
4,1000 to 30000,"Cc1c2cc(N3CCN(S(C)(=O)=O)C[C@H]3Cc3ccccc3)ccc2nn1-c1cc(O)cc(C(F)(F)F)n1 [Compound 2.30, (R)-2-(5-(2-Benzyl-4-(methylsulfonyl)piperazin-1-yl)-3-methyl-2H-indazol-2-yl)-6-(trifluoromethyl)pyridin-4-ol]"
5,≤ 100,"Cc1nn(-c2cc(C(F)(F)F)c(F)c(O)c2F)c2cnc(N3CCOC[C@H]3Cc3ccccc3)nc12 [Compound 2.31, (R)-3-(5-(3-Benzylmorpholino)-3-methyl-1H-pyrazolo[4,3-d]pyrimidin-1-yl)-2,6-difluoro-5-(trifluoromethyl)phenol]"
6,≤ 100,"CCN1CCN(c2ncc3c(n2)c(C)nn3-c2cc(C(F)(F)F)c(F)c(O)c2F)[C@H](Cc2ccccc2)C1 [Compound 2.32, (R)-3-(5-(2-Benzyl-4-ethylpiperazin-1-yl)-3-methyl-1H-pyrazolo[4,3-d]pyrimidin-1-yl)-2,6-difluoro-5-(trifluoromethyl)phenol]"
7,≤ 100,"Cc1nn(-c2cc(C(F)(F)F)c(F)c(O)c2F)c2cc(F)c(N3CCN(S(C)(=O)=O)C[C@H]3Cc3ccccc3)nc12 [Compound 2.33, (R)-3-(5-(2-Benzyl-4-(methylsulfonyl)piperazin-1-yl)-6-fluoro-3-methyl-1H-pyrazolo[4,3-b]pyridin-1-yl)-2,6-difluoro-5-(trifluoromethyl)phenol]"
8,≤ 100,"Cc1nn(-c2cc(C(F)(F)F)c(F)c(O)c2F)c2cc(Cl)c(N3CCN(S(C)(=O)=O)C[C@H]3Cc3ccccc3)nc12 [Compound 2.34, (R)-3-(5-(2-Benzyl-4-(methylsulfonyl)piperazin-1-yl)-6-chloro-3-methyl-1H-pyrazolo[4,3-b]pyridin-1-yl)-2,6-difluoro-5-(trifluoromethyl)phenol]"
9,≤ 100,"Cc1nn(-c2cc(Cl)c(F)c(O)c2F)c2cnc(N3CCN(S(C)(=O)=O)C[C@H]3Cc3ccccc3)nc12 [Compound 2.35, (R)-3-(5-(2-Benzyl-4-(methylsulfonyl)piperazin-1-yl)-3-methyl-1H-pyrazolo[4,3-c]pyrimidin-1-yl)-5-chloro-2,6-difluorophenol]"
10,≤ 100,"CS(=O)(=O)N1CCN(c2ncc3c(cnn3-c3cc(O)c(F)c(C(F)(F)F)c3)n2)[C@H](Cc2ccccc2)C1 [Compound 2.36, (R)-5-(5-(2-Benzyl-4-(methylsulfonyl)piperazin-1-yl)-1H-pyrazolo[4,3-d]pyrimidin-1-yl)-2-fluoro-3-(trifluoromethyl)phenol]"
11,≤ 100,"Cn1nc(-c2cc(C(F)(F)F)c(F)c(O)c2F)c2cnc(N3CCN(S(C)(=O)=O)C[C@H]3Cc3ccccc3)nc21 [Compound 5, (R)-3-(6-(2-Benzyl-4-(methylsulfonyl)piperazin-1-yl)-1-methyl-1H-pyrazolo[3,4-d]pyrimidin-3-yl)-2,6-difluoro-5-(trifluoromethyl)phenol]"
12,≤ 100,"Cn1nc(-c2cc(C(F)(F)F)c(F)c(O)c2F)c2cnc(N3CCOCC3CC3CC3)nc21 (stereo not shown) [Compound 5.01, 3-(6-(3-(Cyclopropylmethyl)morpholino)-1-methyl-1H-pyrazolo[3,4-d]pyrimidin-3-yl)-2,6-difluoro-5-(trifluoromethyl)phenol]"
13,≤ 100,"Cn1nc(-c2cc(C(F)(F)F)c(F)c(O)c2F)c2cnc(N3CCOC(Cc4ccccc4)C3)nc21 (stereo not shown) [Compound 5.02, 3-(6-(2-Benzylmorpholino)-1-methyl-1H-pyrazolo[3,4-d]pyrimidin-3-yl)-2,6-difluoro-5-(trifluoromethyl)phenol]"
14,≤ 100,"Cn1nc(-c2cc(C(F)(F)F)c(F)c(O)c2F)c2cnc(N3CCOCC3Cc3ccccc3)nc21 (stereo not shown) [Compound 5.03, 3-(6-(3-Benzylmorpholino)-1-methyl-1H-pyrazolo[3,4-d]pyrimidin-3-yl)-2,6-difluoro-5-(trifluoromethyl)phenol]"
15,≤ 100,"Cn1nc(-c2cc(C(F)(F)F)c(F)c(O)c2F)c2cnc(N3CCC(O)(Cn4cccn4)CC3)nc21 [Compound 5.04, 4-((1H-Pyrazol-1-yl)methyl)-1-(3-(2,4-difluoro-3-hydroxy-5-(trifluoromethyl)phenyl)-1-methyl-1H-pyrazolo[3,4-d]pyrimidin-6-yl)piperidin-4-ol]"
16,100 to 1000,"Cn1nc(-c2cc(C(F)(F)F)c(F)c(O)c2F)c2cnc(N3CCC(O)(CN4CCOCC4)CC3)nc21 [Compound 5.05, 1-(3-(2,4-Difluoro-3-hydroxy-5-(trifluoromethyl)phenyl)-1-methyl-1H-pyrazolo[3,4-d]pyrimidin-6-yl)-4-(morpholinomethyl)piperidin-4-ol]"
17,≤ 100,"Cn1nc(-c2cc(C(F)(F)F)c(F)c(O)c2F)c2cnc(N3CCN(S(C)(=O)=O)C[C@@H]3Cc3ccccc3)nc21 [Compound 5.06, (S)-3-(6-(2-Benzyl-4-(methylsulfonyl)piperazin-1-yl)-1-methyl-1H-pyrazolo[3,4-d]pyrimidin-3-yl)-2,6-difluoro-5-(trifluoromethyl)phenol]"
18,≤ 100,"CN1CCN(c2ncc3c(-c4cc(C(F)(F)F)c(F)c(O)c4F)nn(C)c3n2)CC1Cc1ccccc1 (stereo not shown) [Compound 5.07, 3-(6-(3-Benzyl-4-methylpiperazin-1-yl)-1-methyl-1H-pyrazolo[3,4-d]pyrimidin-3-yl)-2,6-difluoro-5-(trifluoromethyl)phenol]"
19,≤ 100,"Cn1nc(-c2cc(C(F)(F)F)c(F)c(O)c2F)c2cnc(N3CCOC[C@H]3Cc3ccccc3)nc21 [Compound 5.08, (R)-3-(6-(3-Benzylmorpholino)-1-methyl-1H-pyrazolo[3,4-d]pyrimidin-3-yl)-2,6-difluoro-5-(trifluoromethyl)phenol]"
20,≤ 100,"Cn1nc(-c2cc(C(F)(F)F)c(F)c(O)c2F)c2cnc(N3CCOC[C@@H]3Cc3ccccc3)nc21 [Compound 5.09, (S)-3-(6-(3-Benzylmorpholino)-1-methyl-1H-pyrazolo[3,4-d]pyrimidin-3-yl)-2,6-difluoro-5-(trifluoromethyl)phenol]"
21,≤ 100,"Cn1nc(-c2cc(C(F)(F)F)c(F)c(O)c2F)c2cnc(N3CCOCC3CC3CCC3)nc21 (stereo not shown) [Compound 5.10, 3-(6-(3-(Cyclobutylmethyl)morpholino)-1-methyl-1H-pyrazolo[3,4-d]pyrimidin-3-yl)-2,6-difluoro-5-(trifluoromethyl)phenol]"
22,≤ 100,"Cn1nc(-c2cc(C(F)(F)F)c(F)c(O)c2F)c2cnc(N3CCCCC3Cc3ccccn3)nc21 (stereo not shown) [Compound 5.11, 2,6-Difluoro-3-(1-methyl-6-(2-(pyridin-2-ylmethyl)piperidin-1-yl)-1H-pyrazolo[3,4-d]pyrimidin-3-yl)-5-(trifluoromethyl)phenol]"
